These results are taken from ChEMBL document CHEMBL1795314, “Mycobacterium tuberculosis and cholinesterase inhibitors from Voacanga globosa” (Eur J Med Chem, 2011).

One assay addresses Cholinesterase (Equus caballus, UniProt P81908). The experiment in a line: Inhibition of equine serum BChE by colorimetric Ellman's assay.
In the next assay the target is Acetylcholinesterase (Electrophorus electricus, UniProt O42275). The experiment in a line: Inhibition of electric eel AChE by colorimetric Ellman's assay.
Acetylcholinesterase, sequence (O42275 whole entry): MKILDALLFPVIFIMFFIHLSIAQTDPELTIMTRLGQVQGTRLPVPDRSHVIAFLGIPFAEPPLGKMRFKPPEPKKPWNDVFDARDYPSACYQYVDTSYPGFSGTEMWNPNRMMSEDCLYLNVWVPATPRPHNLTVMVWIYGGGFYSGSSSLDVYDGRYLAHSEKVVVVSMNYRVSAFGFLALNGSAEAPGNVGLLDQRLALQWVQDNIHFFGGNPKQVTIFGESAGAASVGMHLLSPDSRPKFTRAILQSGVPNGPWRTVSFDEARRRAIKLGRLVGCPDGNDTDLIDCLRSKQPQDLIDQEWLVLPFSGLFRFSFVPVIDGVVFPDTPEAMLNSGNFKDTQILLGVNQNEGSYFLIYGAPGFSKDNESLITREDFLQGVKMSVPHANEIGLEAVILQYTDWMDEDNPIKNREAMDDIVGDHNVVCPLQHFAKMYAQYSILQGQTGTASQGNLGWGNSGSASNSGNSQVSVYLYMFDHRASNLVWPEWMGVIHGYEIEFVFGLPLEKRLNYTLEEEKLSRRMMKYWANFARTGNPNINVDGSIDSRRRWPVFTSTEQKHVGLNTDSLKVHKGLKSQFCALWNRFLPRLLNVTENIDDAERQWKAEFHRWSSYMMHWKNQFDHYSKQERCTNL
Assay [1] deals with Mycobacterium tuberculosis. Put plainly: Antitubercular activity against replicating Mycobacterium tuberculosis H37Rv ATCC 27294 after 1 week by microplate alamar blue assay. The format is functional. The settings on record: H37Rv ATCC 27294, 168 h.
Assay [2] relates to Mycobacterium tuberculosis. The experiment in a line: Antitubercular activity against replicating Mycobacterium tuberculosis H37Rv ATCC 27294 at 100 ug/ml after 1 week by microplate alamar blue assay. The assay is classed as functional. The note with it: H37Rv ATCC 27294, 168 h.
Assay [3] relates to Mycobacterium tuberculosis. Put plainly: Antitubercular activity against replicating Mycobacterium tuberculosis H37Rv ATCC 27294 at 50 ug/ml after 1 week by microplate alamar blue assay. The assay is classed as functional. The note with it: H37Rv ATCC 27294, 168 h.
The subject of assay [4] is Mycobacterium tuberculosis. The experiment in a line: Antitubercular activity against non-replicating Mycobacterium tuberculosis H37Rv ATCC 27294 incubated 10 days under anaerobic condition measured after 28 hrs of recovery in air by luciferase based low oxygen recovery assay. The assay is classed as functional.
Assay [5] relates to Mycobacterium tuberculosis. The experiment in a line: Antitubercular activity against replicating Mycobacterium tuberculosis H37Rv ATCC 27294 at 20 ug/ml after 1 week by microplate alamar blue assay. The format is functional. The settings on record: H37Rv ATCC 27294, 168 h.

Converted amounts (≈) assume the structure as drawn.

Cholinesterase, sequence (P81908 whole entry): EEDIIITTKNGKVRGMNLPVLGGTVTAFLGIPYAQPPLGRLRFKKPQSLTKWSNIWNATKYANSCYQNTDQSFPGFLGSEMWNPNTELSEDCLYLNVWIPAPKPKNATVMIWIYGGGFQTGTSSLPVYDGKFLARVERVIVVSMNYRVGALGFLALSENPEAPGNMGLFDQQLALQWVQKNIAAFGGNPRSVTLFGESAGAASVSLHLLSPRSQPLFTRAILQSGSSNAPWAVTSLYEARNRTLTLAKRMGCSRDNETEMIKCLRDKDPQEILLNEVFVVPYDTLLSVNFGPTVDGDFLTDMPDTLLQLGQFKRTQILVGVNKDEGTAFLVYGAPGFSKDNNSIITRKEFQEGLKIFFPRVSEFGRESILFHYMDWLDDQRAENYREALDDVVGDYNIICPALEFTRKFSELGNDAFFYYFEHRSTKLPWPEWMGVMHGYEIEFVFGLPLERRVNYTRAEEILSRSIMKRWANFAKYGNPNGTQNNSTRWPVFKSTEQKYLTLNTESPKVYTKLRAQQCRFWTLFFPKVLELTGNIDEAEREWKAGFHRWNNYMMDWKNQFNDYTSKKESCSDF

For the molecule `COC(=O)C1=C2Nc3ccccc3[C@@]23CCN2C[C@]4(C[C@@H]5C[C@]67CC(=O)O[C@H]6CCN6CC[C@@]8(c9cccc(OC)c9N(C4)[C@@H]58)[C@@H]67)[C@@H]4OCC[C@]4(C1)[C@H]23` [DEOXYVOBSTUSINE LACTONE], the IC50 on Cholinesterase (read-out: IC50) came out at 20.2 µM; against Acetylcholinesterase, 91 µM. In addition, the MIC in assay [1] is over 100 µg/mL. The molecule also yielded an inhibition at 100 µg/mL in assay [2] of 35%.
Consider `COC(=O)C1=C2Nc3ccccc3[C@@]23CCN2C[C@]4(C[C@@H]5C[C@]67CCO[C@H]6CCN6CC[C@@]8(c9cccc(OC)c9N(C4)[C@@H]58)[C@@H]67)[C@@H]4OCC[C@]4(C1)[C@H]23` [DEOXYVOBTUSINE], for which the IC50 at Cholinesterase (read-out: IC50) is 6.2 µM; on Cholinesterase (read-out: pIC50 (converted)) it was 7.73 µM; at Acetylcholinesterase, 87 µM. This molecule had a minimum inhibitory concentration (MIC) in assay [1] of over 50 µg/mL. This molecule registered an inhibition at 50 µg/mL in assay [3] of 13%.
For the molecule `COC(=O)C1=C2Nc3ccccc3[C@@]23CCN2[C@H](O)[C@]4(C[C@@H]5C[C@]67CC(=O)O[C@H]6CCN6CC[C@@]8(c9cccc(OC)c9N(C4)[C@@H]58)[C@@H]67)[C@@H]4OCC[C@]4(C1)[C@H]23` [GLOBOSPIRAMINE], the IC50 at Cholinesterase (read-out: IC50) is 16.4 µM; at Cholinesterase (read-out: pIC50 (converted)), 16.3 µM; against Acetylcholinesterase it was 94 µM. For the same molecule, the MIC in assay [1] worked out at 4 µg/mL (≈ 5.46 µM); in assay [4], 5.2 µg/mL (≈ 7.1 µM).
As for `NNC(=O)c1ccncc1` [ISONIAZID], the values for the MIC in assay [1] and in assay [4] were 0.68 µg/mL (≈ 4.96 µM) and over 128 µg/mL, respectively.
Molecule `C=C(C)[C@@H]1CC[C@]2(C)CC[C@]3(C)[C@H](CC[C@@H]4[C@@]5(C)CC[C@H](O)C(C)(C)[C@@H]5CC[C@]43C)[C@@H]12` [LUPEOL] registered an inhibition at 20 µg/mL in assay [5] of 0%. The MIC in assay [1] was over 20 µg/mL.
As to `COc1c(N2C[C@@H]3CCCN[C@@H]3C2)c(F)cc2c(=O)c(C(=O)O)cn(C3CC3)c12` [MOXIFLOXACIN], the MIC in assay [1] was 0.83 µg/mL (≈ 2.07 µM); in assay [4], 33.2 µg/mL (≈ 82.7 µM).
`CO[C@H]1/C=C/O[C@@]2(C)Oc3c(C)c(O)c4c(O)c(c(/C=N/N5CCN(C)CC5)c(O)c4c3C2=O)NC(=O)/C(C)=C\C=C\[C@H](C)[C@H](O)[C@@H](C)[C@@H](O)[C@@H](C)[C@H](OC(C)=O)[C@@H]1C` [RIFAMPIN]: the MIC in assay [1] was determined as 0.15 µg/mL (≈ 0.182 µM); in assay [4], 0.84 µg/mL (≈ 1.02 µM).
Turning to `COC(=O)C1=C2Nc3ccccc3[C@@]23CCN2C[C@]4(C[C@@H]5C[C@]67CC(=O)C[C@H]6CCN6CC[C@@]8(c9cccc(OC)c9N(C4)[C@@]58O)[C@@H]67)[C@@H]4OCC[C@]4(C1)[C@H]23` [VOBTUSINE LACTONE], the results for the IC50 at Cholinesterase (read-out: IC50) and against Acetylcholinesterase were 18 µM and 90 µM, respectively. The MIC in assay [1] was over 50 µg/mL. Also, testing at 50 µg/mL in assay [3] gave an inhibition of 13%.
